Experimental data taken from ChEMBL document CHEMBL1134298, “An orally active, water-soluble neurokinin-1 receptor antagonist suitable for both intravenous and oral clinical administration” (J Med Chem, 2001).

What was measured:
[1] = test system: Gerbillinae; assay: Inhibition of GR-73632-induced Gerbil foot tapping after immediate pretreatment iv; assay type: functional; conditions: read-out: ID50 (the source's name)
[2] = biological target: Substance-P receptor (Homo sapiens, UniProt P25103); assay: In vitro inhibition of binding of [125I]-substance P to tachykinin receptor 1
Chain of Substance-P receptor (P25103 whole entry): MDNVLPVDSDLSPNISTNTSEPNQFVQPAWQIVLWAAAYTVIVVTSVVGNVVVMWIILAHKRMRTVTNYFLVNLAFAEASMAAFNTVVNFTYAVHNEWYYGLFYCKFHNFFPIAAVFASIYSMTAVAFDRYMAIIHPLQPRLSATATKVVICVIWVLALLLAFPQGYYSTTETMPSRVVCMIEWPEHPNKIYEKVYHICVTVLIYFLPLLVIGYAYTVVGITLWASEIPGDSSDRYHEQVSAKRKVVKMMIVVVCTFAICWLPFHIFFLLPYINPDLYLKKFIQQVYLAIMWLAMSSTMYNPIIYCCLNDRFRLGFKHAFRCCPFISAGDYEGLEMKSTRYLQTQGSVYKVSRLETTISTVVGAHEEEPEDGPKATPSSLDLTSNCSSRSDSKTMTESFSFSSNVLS

[3] = test system: Gerbillinae; assay: Inhibition of GR-73632-induced Gerbil foot tapping after 24 hr pretreatment iv; assay type: functional; conditions: read-out: ID50 (the source's name)

SMILES | IC50 [2] [nM] | ED50 [1] [mg/kg] | ED50 [3] [mg/kg]
C[C@@H](O[C@H]1OCCN(Cc2nn[nH]c2CN2CCCC2)[C@H]1c1ccc(F)cc1)c1cc(C(F)(F)F)cc(C(F)(F)F)c1 | 0.21 | 0.4 | 
C[C@@H](O[C@H]1OCCN(Cc2n[nH]c(=O)[nH]2)[C@H]1c1ccc(F)cc1)c1cc(C(F)(F)F)cc(C(F)(F)F)c1 [APREPITANT] |  | 0.4 | 0.3
C[C@@H](O[C@H]1OCCN(Cc2nn[nH]c2CN)[C@H]1c1ccc(F)cc1)c1cc(C(F)(F)F)cc(C(F)(F)F)c1 | 0.25 | 5.3 | 
CC(C)N(Cc1[nH]nnc1CN1CCO[C@H](O[C@H](C)c2cc(C(F)(F)F)cc(C(F)(F)F)c2)[C@@H]1c1ccc(F)cc1)C(C)C | 0.35 | 1 | 
CNCc1nn[nH]c1CN1CCOC(O[C@H](C)c2cc(C(F)(F)F)cc(C(F)(F)F)c2)[C@@H]1c1ccc(F)cc1 (stereo not given in full) | 0.29 | 3.1 | 

Continued by falling IC50 [2], values first:

IC50 [2] [nM] | SMILES | ED50 [1] [mg/kg] | ED50 [3] [mg/kg]
0.19 | C[C@@H](OC1OCCN(Cc2n[nH]nc2CN(C)C)[C@H]1c1ccc(F)cc1)c1cc(C(F)(F)F)cc(C(F)(F)F)c1.Cl (stereo not given in full) | 0.2 | 0.3
0.19 | C[C@@H](OC1OCCN(Cc2n[nH]nc2CN2CCC2)[C@H]1c1ccc(F)cc1)c1cc(C(F)(F)F)cc(C(F)(F)F)c1 (stereo not given in full) | 0.4 | 
